Source: patent US20080219963A1, “Composition Containing Micronutrients With Improved Anti-Oxidant Activity And The Use Thereof” (ACTIMEX S.R.L. AREA Science Park, priority 2005, published 2008)
Values after ≈ are worked out from the molar mass of the structure shown. Each block holds one compound with its values, some of them ahead of it.

Tests used:
[1] = Antioxidant activity, ORAC (Oxygen Radical Absorbance Capacity) test; type: biochemical
Procedure: Antioxidant activity was measured using the ORAC (Oxygen Radical Absorbance Capacity) test.
The test was based on measuring the inhibition induced by an antioxidant on the loss of activity of a fluorescent indicator, in the presence of oxidants.
In practice, given a fluorescent indicator (fluorescein) which loses its fluorescence due to the action of an oxidising agent (AAPH), antioxidant activity was evaluated in terms of maintenance of the fluorescence of the indicator over time, due to the ability of the antioxidant to counteract the action of the oxidising agent.
Antioxidant activity was assessed by spectrofluorometric assay, measuring the decay of the fluorescence of the indicator over time (from 0 to 360 minutes). A measuring the fluorescence of the sodium fluorescein indicator was performed using a spectrofluorimeter at a wavelength of 515 nm.
Antioxidant activity is expressed as the antioxidant power in relation to Trolox® at the same concentration of the samples.

[2] = Solubility in buffered water at pH=7 after 24 hours (equilibrium); details: pH 7, aqueous buffer, thermodynamic from solid
Procedure: An excess of powder is added to buffered water at pH=7 until a precipitate is obtained.

[3] = background statement; cited from earlier work

Structure (SMILES): CC(C)=CCC/C(C)=C/C=C/C(C)=C/C=C/C(C)=C/C=C/C=C(C)/C=C/C=C(C)/C=C/C=C(\C)CCC=C(C)C [LYCOPENE (alone), lycopene]
Rel. antiox. activity ([1]; lycopene alone at equal concentration = 1): 1

Structure (SMILES): O=C(O)CCCCC1CCSS1 (stereo not drawn) [LIPOIC ACID (alone), lipoic acid]
Rel. antiox. activity ([1]; lipoic acid alone at equal concentration = 1): 1

Structure (SMILES): CC1=C(/C=C/C(C)=C/C=C/C(C)=C/C=C/C=C(C)/C=C/C=C(C)/C=C/C2=C(C)C(=O)[C@@H](O)CC2(C)C)C(C)(C)C[C@H](O)C1=O [ASTAXANTIN (alone), astaxantin]
Rel. antiox. activity ([1]; astaxantin alone at equal concentration = 1): 1

Now from value to compound, other results behind:

solubility at 24 h ([2]; buffered water): 150 µg/mL (≈ 657 µM)
Structure (SMILES): Oc1ccc(C=Cc2cc(O)cc(O)c2)cc1 [RESVERATROL (alone), resveratrol]

solubility at 24 h [2]: 10 µg/mL (≈ 37 µM)
Structure (SMILES): O=c1c(-c2ccc(O)cc2)coc2cc(O)cc(O)c12 [GENISTEIN (alone), genistein]
Rel. antiox. activity ([1]; genistein alone at equal concentration = 1): 1

solubility at 24 h ([2]; buffered water): 2 µg/mL (≈ 2.32 µM)
Structure (SMILES): COC1=C(OC)C(=O)C(C/C=C(\C)CC/C=C(\C)CC/C=C(\C)CC/C=C(\C)CC/C=C(\C)CC/C=C(\C)CC/C=C(\C)CC/C=C(\C)CC/C=C(\C)CCC=C(C)C)=C(C)C1=O [UBIDECARENONE (alone), ubidecarenone]
solubility in water or in aqueous environments [3]: < 100 µg/mL | Relative antiox. activity ([1]; ubidecarenone alone at equal concentration = 1): 1
